# Data published in the supplement of paper PMC10307832.
# Compound: O=C(Nc1cc(C(F)(F)F)cc(C(F)(F)F)c1)c1cc(Cl)ccc1O [IMD-0354] + CC(=O)Nc1cccc(-n2c(=O)n(C3CC3)c(=O)c3c(Nc4ccc(I)cc4F)n(C)c(=O)c(C)c32)c1 [Trametinib] (partner 0.02 µM)
# Assay: relative viability (nuclei count vs DMSO), 5 days (fraction); higher = more cells survive
# Conditions: first compound 4 µM
# Outline: (§1)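 Lung cancer cell lines were pin-tool dosed in 1536-well plates on the day after seeding, with either a lone drug or a fixed anchor-drug dose plus five library-drug doses (not always all listed) in √10 steps. Nuclei were counted on 4× images after 5 days. Relative viability is the ratio of treated-well to vehicle-well nuclei counts, with each value a median of duplicate plates.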
row,Cell Line,relative viability
1,NCI-H460,0.0199
2,NCI-H2347,0.207
3,SW 1573,0.105
4,NCI-H1793,0.169

# Compound: Cc1cnc(CNC(=O)c2c(=O)c3ccc(N4CCCN(C)CC4)nc3n3c2sc2ccccc23)cn1 [CX-5461] + Cc1nc(NC(=O)N2CCC[C@H]2C(N)=O)sc1-c1ccnc(C(C)(C)C(F)(F)F)c1 [Alpelisib] (partner 2 µM)
# Assay: as above
# Conditions: first compound 0.01 µM
# Outline: as §1
row,Cell Line,relative viability
1,LCLC-103H,1.04
2,NCI-H520,0.841
3,NCI-H2126,0.794
4,EMC-BAC-2,0.752
5,NCI-H2085,0.965
6,NCI-H1666,1.01
7,NCI-H596,0.509
8,NCI-H1395,1.31
9,NCI-H2087,1.02
10,H3255,0.763
11,COR-L23,0.81
12,COR-L 105,1.14
13,LOU-NH91,0.812
14,NCI-H358,0.997
15,NCI-H2405,0.851
16,HOP-62,1.12

row,Cell Line,relative viability
1,HCC-44,0.752
2,LU99A,0.536
3,BEN,1.14
4,HARA,0.926
5,NCI-H322M,0.813
6,LCLC-97TM1,0.233
7,NCI-H2009,1.12
8,A-427,1.08
9,NCI-H441,0.76
10,NCI-H661,0.805
11,NCI-H1734,0.772
12,NCI-H460,0.484
13,NCI-H2347,1.11
14,SW 1573,0.733
15,NCI-H1793,0.769

# Same assay, conditions: first compound 0.03162 µM
row,Cell Line,relative viability
1,LCLC-103H,0.925
2,NCI-H520,0.945
3,NCI-H2126,0.784
4,EMC-BAC-2,0.833
5,NCI-H2085,0.935
6,NCI-H1666,0.983
7,NCI-H596,0.494
8,NCI-H1395,0.935
9,NCI-H2087,1.03
10,LK-2,1.22
11,H3255,0.819
12,COR-L23,0.921
13,COR-L 105,0.942
14,LOU-NH91,0.739
15,NCI-H358,0.883
16,NCI-H2405,0.871

row,Cell Line,relative viability
1,HOP-62,1.09
2,HCC-44,0.991
3,LU99A,0.544
4,BEN,1.04
5,HARA,0.84
6,NCI-H322M,0.938
7,LCLC-97TM1,0.269
8,NCI-H2009,1.14
9,A-427,1.16
10,NCI-H441,0.876
11,NCI-H661,0.674
12,NCI-H1734,0.789
13,NCI-H460,0.489
14,NCI-H2347,1.04
15,SW 1573,0.788
16,NCI-H1793,0.668

# Same assay, conditions: first compound 0.1 µM
row,Cell Line,relative viability
1,LCLC-103H,0.985
2,NCI-H520,0.856
3,NCI-H2126,0.717
4,EMC-BAC-2,0.782
5,NCI-H2085,0.96
6,NCI-H596,0.52
7,NCI-H1395,0.897
8,NCI-H2087,1.07
9,LK-2,1.37
10,H3255,0.727
11,COR-L23,0.649
12,COR-L 105,1.26
13,LOU-NH91,0.703
14,NCI-H358,0.413
15,NCI-H2405,0.907
16,HOP-62,1

row,Cell Line,relative viability
1,HCC-44,0.839
2,LU99A,0.527
3,BEN,1.14
4,HARA,0.865
5,NCI-H322M,0.846
6,LCLC-97TM1,0.217
7,NCI-H2009,1.12
8,A-427,1.17
9,NCI-H441,0.694
10,NCI-H661,0.876
11,NCI-H1734,0.665
12,NCI-H460,0.0913
13,NCI-H2347,1.07
14,SW 1573,0.91
15,NCI-H1793,0.772

# Same assay, conditions: first compound 0.3162 µM
row,Cell Line,relative viability
1,LCLC-103H,1.03
2,NCI-H520,0.712
3,NCI-H2126,0.78
4,EMC-BAC-2,0.698
5,NCI-H2085,1.02
6,NCI-H1666,0.924
7,NCI-H596,0.524
8,NCI-H1395,0.704
9,NCI-H2087,1.34
10,H3255,0.403
11,COR-L23,0.725
12,COR-L 105,0.851
13,LOU-NH91,0.677
14,NCI-H358,0.593
15,NCI-H2405,0.525
16,HOP-62,1.35
17,HCC-44,0.827
18,LU99A,0.364
19,BEN,1.07
20,HARA,0.73
21,NCI-H2009,1.13
22,NCI-H441,0.727
23,NCI-H1734,0.559
24,NCI-H460,0.402
25,NCI-H2347,0.834
26,SW 1573,0.822
27,NCI-H1793,0.71

# Same assay, conditions: first compound 1 µM
row,Cell Line,relative viability
1,LCLC-103H,0.921
2,NCI-H520,0.619
3,NCI-H2126,0.772
4,EMC-BAC-2,0.717
5,NCI-H2085,0.853
6,NCI-H1666,0.416
7,NCI-H596,0.441
8,NCI-H1395,0.561
9,NCI-H2087,0.583
10,LK-2,0.864
11,H3255,0.73
12,COR-L23,0.342
13,COR-L 105,0.414
14,LOU-NH91,0.64
15,NCI-H358,0.27
16,NCI-H2405,0.624

row,Cell Line,relative viability
1,HOP-62,1.05
2,HCC-44,0.753
3,LU99A,0.413
4,BEN,0.92
5,HARA,0.799
6,NCI-H322M,0.807
7,LCLC-97TM1,0.245
8,NCI-H2009,0.681
9,A-427,1.06
10,NCI-H441,0.438
11,NCI-H661,0.588
12,NCI-H1734,0.615
13,NCI-H460,0.0154
14,NCI-H2347,0.994
15,SW 1573,0.36
16,NCI-H1793,0.726
